Data from US10517870B2, “Aryl substituted bicycle heteroaryl compounds” (Bristol-Myers Squibb Company, priority 2015, dated 2019).
Like-named read-outs stand apart in the source and are kept apart here.

Key:
Type in all cases: cell-based
Caski (HPV16+) cells = experiment: Cell proliferation/viability assay, Caski cells; details: Homo sapiens, Ca-Ski, 96 h, 4 days
Method: (§1) Caski (catalog number CRL-1550), SiHa (catalog number HTB-35), C33A (catalog number HTB-31), Saos-2 (ATCC HTB-85), and Hela (catalog number CCL-2) cells were obtained from the American Type Culture Collection (ATCC). The human cervical carcinoma cell lines Caski. SiHa, Hela and C33A, and the human osteosarcoma cell line Saos-2, and the human keratinocyte cell line HaCaT were cultured in Dulbecco's Modified Eagle Medium (DMEM, Invitrogen catalog number 11965-092) supplemented with 10% fetal bovine serum. The colorectal carcinoma cell line HCT-116 was cultured in Roswell Park Memorial Institute-1640 Medium (Invitrogen catalog number 11875-093) supplemented with 10% FBS. All cells were incubated at 37° C. in a humidified atmosphere with 5% CO2 in air. To establish the SCHPV-18 cell line, one million primary neonatal human foreskin keratinocytes (Invitrogen, catalog no. C-001-5C), cultured in KBM Gold-keratinocvte cell basal medium (Lonza, catalog no. 192060), were electroporated with 5 μg HPV-18 plasmid DNA (ATCC catalog no. 45152D) using the Amaxa Nucleofector II on setting T-007. Cells were co-transfected with 2 μg plasmid pZSGreen1-N1 (Clontech catalog no. 632448) encoding G418 resistance, and cells were selected for four days in 100 μg/ml G418, after which selection was removed. Cells were maintained in culture six months prior to compound testing. Integration of the HPV 18 genome was confirmed by Southern blot. Control cells transfected in parallel with pZSGreen1-N1 alone became senescent four days after selection and the culture could not be expanded. SCHPV-18 cells were maintained in E medium (Fehrmann F, Laimins L A. Human papillomavirus type 31 life cycle: methods for study using tissue culture models. Methods Mol Biol 2005; 292:317-330).
(§2) For proliferation assays, cells were plated in white polystyrene 96-well plates (Costar catalog number 3917) for CellTiter Glo viability assays or 96-well special optics plates (Costar cat #3614) for CellTiter Blue viability assays. Cells were plated in the appropriate growth medium without antibiotics. Two hours after cell plating, a 200× compound stock diluted in DMSO was added to a final concentration of 0.5%. Plates were incubated at 37° C., for 4 days and then cell viability was assessed using either CellTiter Blue (Promega catalog number G8081) or CellTiter Glo (Promega catalog number G7572) according to the manufacturer's instructions. For the CellTiter Blue viability assay, data was collected using the SpectraMax Gemini EM (Molecular Devices) with an excitation wavelength of 530 nm and emission wavelength of 590 nm. For the CellTiter Glo viability assay, data was collected using the Envision Mulitlabel Reader (Perkin Elmer catalog number 2104-0010). To calculate IC50 and EC50 values, percent inhibition curves were fit using a four-parameter logistic formula [y=A+[…]], where A and B denote minimal and maximal % inhibition, respectively, C is the IC50 value, D is the Hill slope, and x represents compound concentration.
(§3) Table C, below, sets out the results obtained employing various compounds of the invention tested for their effects on proliferation of such cells. Caski or SiHa cells, transformed by HPV 16, Hela cells, transformed by HPV 18, or HPV-negative control cell lines (Saos-2 or C33a) were treated with various compounds. […] Unlike the HPV-negative Saos-2 or C33a cell lines, the HPV-transformed cell lines rely on the presence of HPV for their continued proliferation. Therefore, a comparison of IC50 values from HPV-transformed cell lines with IC50 values obtained from HPV-negative cell lines can be used to test for compound selectivity.

Saos-2 (HPV−) cells = experiment: Cell proliferation/viability assay, Saos-2 cells; details: Homo sapiens
Method: as §1, §2, §3

HeLa (HPV18+) cells = experiment: Cell proliferation/viability assay, HeLa cells; details: Homo sapiens, 96 h, 4 days
Method: as §1, §2, §3

SiHa (HPV16+) cells = experiment: Cell proliferation/viability assay, SiHa cells; details: Homo sapiens, 96 h, 4 days
Method: as §1, §2, §3

C33A (HPV−) cells = experiment: Cell proliferation/viability assay, C33A cells; details: Homo sapiens, C-33-A, 96 h
Method: as §1, §2, §3

PAR4 = molecular target: T1, PAR4 (Homo sapiens, UniProt Q96RI0); experiment: PAR4 FLIPR assay (calcium mobilization, antagonist activity) in PAR4-expressing HEK293 cells
T1 construct: expressed in transfected cells; host or cells: HEK293 PAR4 Clone 1.2A
T1 sequence (Q96RI0 18-385): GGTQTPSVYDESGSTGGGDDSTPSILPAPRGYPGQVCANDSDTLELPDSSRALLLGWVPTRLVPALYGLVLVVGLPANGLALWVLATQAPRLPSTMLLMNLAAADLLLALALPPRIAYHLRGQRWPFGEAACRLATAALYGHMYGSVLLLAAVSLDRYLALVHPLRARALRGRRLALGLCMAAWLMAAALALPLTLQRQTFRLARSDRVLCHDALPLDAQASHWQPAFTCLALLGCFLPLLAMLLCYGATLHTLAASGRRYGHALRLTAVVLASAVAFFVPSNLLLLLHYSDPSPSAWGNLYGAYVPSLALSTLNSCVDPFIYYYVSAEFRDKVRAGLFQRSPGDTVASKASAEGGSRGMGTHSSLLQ
Source text: The FLIPR assay is an exemplary in vitro assay for measuring the activity of the PAR4 antagonists of the present invention. In this assay, intracellular calcium mobilization is induced in PAR4 expressing cells by a PAR4 agonist and calcium mobilization is monitored.
HEK293 cells stably expressing PAR4 were generated by a standard method of transfection of human PAR4 (F2R23) cDNA expression vector and selected based on PAR4 protein expression or mRNA expression. […] These cells also express endogenous PAR1 and can elicit calcium signal upon stimulation with PAR1 agonist peptide. Therefore, the same cells were also used to determine selectivity against PAR1 and agonist activity for both receptors. Cells from HEK293 PAR4 Clone 1.2A (BMS Arctic ID 383940) were propagated and used for calcium mobilization studies.
FLIPR-based calcium mobilization assay in HEK293 cells was used to measure PAR4 antagonism, agonism, and selectivity against PAR1. The activity of the PAR4 antagonists of the present invention were tested in PAR4 expressing cells by monitoring H-Ala-Phe(4-F)-[…]NH2-induced intracellular calcium mobilization. Counter screens for agonist activity and PAR1 antagonist activity were also performed. Briefly, PAR1/PAR4-expressing HEK293 cells were grown in DMEM (Life Technology, Grand Island, N.Y.) containing 10% heat-inactivated FBS, 1% Penicillin-Streptomycin, 10 μg/mL blasticidin, and 100 μg/mL Zeocin at 37° C. with 5% CO2. Cells were plated overnight prior to the experiment in a black 384-well Purecoat Amine clear bottom plate (Becton Dickinson Biosciences, San Jose, Calif.) at 10,000 cells/well in 30 μL growth medium and incubated in a humidified chamber at 37° C. with 5% CO2 overnight. Prior to compound addition, the cell medium was replaced with 40 μL of IX calcium and magnesium-containing Hank's Balanced Saline Solution (HBSS) (with 20 mM HEPES) and 1:1000 diluted fluorescent calcium indicator (Codex Biosolutions, Gaithersburg, Md.). After a 30 minute incubation period at 37° C., and a further 30 minute incubation and equilibration period at room temperature, 20 μL test compound (diluted in 1×HBSS buffer) was added at various concentrations at 0.17% dimethyl sulfoxide (DMSO) final concentration. Changes in fluorescence intensity were measured using a Functional Drug Screening System (FDSS, Hamamatsu, Japan) to determine agonist activities. The cells were then incubated for 30 minutes at room temperature followed by addition of 20 μL of agonist peptide for antagonist activity measurement. […] Compound potency was derived from 11-point concentration-response curves.

[1] = SAOS-2, 96 h, read-out: Saos-2 (HPV−) Proliferation IC50 (μM)
[2] = read-out: C33A (HPV−) Proliferation IC50 (μM)
[3] = 96 h, Saos-2, HPV-negative, 4 days, read-out: Saos-2 (HPV−) Proliferation IC50
[4] = C33A, HPV-negative, 4 days, read-out: C33A (HPV−) Proliferation IC50

Row | Compound | IC50 (Caski (HPV16+) cells) | IC50 (Saos-2 (HPV−) cells; [1]) | IC50 (HeLa (HPV18+) cells) | IC50 (SiHa (HPV16+) cells) | IC50 (C33A (HPV−) cells; [2]) | IC50 (PAR4) | IC50 (Saos-2 (HPV−) cells; [3]) | IC50 (C33A (HPV−) cells; [4])
1 | Cc1cc(-c2ccc(Cl)c(Cl)c2)c2ncc(OC(F)F)nc2c1 [Example 24, 5-(3,4-dichlorophenyl)-2-(difluoromethoxy)-7-methylquinoxaline] | 12.8 µM | > 100 µM | 12.7 µM | 8.9 µM | 89.4 µM | 3.3 µM |  | 
2 | COc1ccc2cc(-c3cc(C(F)(F)F)cc4nc(OC(F)F)cnc34)ccc2c1 [Example 11, 2-(difluoromethoxy)-5-(6-methoxynaphthalen-2-yl)-7-(trifluoromethyl)quinoxaline] | 2.9 µM |  | 2.1 µM | 2.7 µM |  |  | 45.9 µM | > 99.5 µM
3 | Cc1cc(-c2ccc(F)c(F)c2)c2ncc(OC(F)F)nc2c1 [Example 22, 2-(difluoromethoxy)-5-(3,4-difluorophenyl)-7-methylquinoxaline] | 15.9 µM | 70.6 µM | 16.9 µM | 12.6 µM | 94.4 µM | 1 µM |  | 
4 | C=Cc1cc(-c2ccc(OC)cc2)c2ncc(OC(F)F)nc2c1 [Example 3, 2-(difluoromethoxy)-5-(4-methoxyphenyl)-7-vinylquinoxaline] | 61.9 µM | > 100 µM |  |  | > 100 µM | 0.69 µM |  | 
5 | COc1ccc(-c2cc(Br)cc3nc(OC(F)F)cnc23)cc1 [Example 27, 7-bromo-2-(difluoromethoxy)-5-(4-methoxyphenyl)quinoxaline] |  |  |  |  |  | 2.6 µM |  | 
6 | Cc1cc(-c2ccc(F)c(C(F)(F)F)c2)c2ncc(OC(F)F)nc2c1 [Example 17, 2-(difluoromethoxy)-5-(4-fluor-3-(trifluoromethyl)phenyl)-7-methylquinoxaline] | 17.9 µM |  | 23.7 µM | 17.8 µM |  |  | 96.5 µM | 58.3 µM
7 | COc1ccc(-c2cc3ncc(OC(F)F)nc3cc2C(F)(F)F)cc1 [Example 7, 2-(difluoromethoxy)-6-(4-methoxyphenyl)-7-(trifluoromethyl)quinoxaline] | 5 µM |  | 4.4 µM | 4.3 µM |  |  | 92.1 µM | > 100 µM
8 | COc1cccc(-c2cc(C(F)(F)F)cc3nc(OC(F)F)cnc23)c1 [Example 10, 2-(difluoromethoxy)-5-(3-methoxyphenyl)-7-(trifluoromethyl)quinoxaline] | 3.9 µM |  | 4.4 µM | 5.1 µM |  |  | 55 µM | > 99.5 µM
9 | COC(=O)c1cc(-c2ccc(OC)cc2)c2ncc(OC(F)F)nc2c1 [Example 4, Methyl 3-(difluoromethoxy)-8-(4-methoxyphenyl)quinoxaline-6-carboxylate] | 12.6 µM | > 100 µM |  |  | 53.4 µM | 1 µM |  | 
10 | COc1cc(-c2cc(C(F)(F)F)cc3nc(OC(F)F)cnc23)cc(C(F)(F)F)c1 [Example 13, 2-(difluoromethoxy)-5-(3-methoxy-5-(trifluoromethyl)phenyl)-7-(trifluoromethyl)quinoxaline] | 15.6 µM |  | 37 µM | 24 µM |  |  | 40.3 µM | 40.5 µM
11 | Cc1cc(-c2cccc(C(F)(F)F)c2)c2ncc(OC(F)F)nc2c1 [Example 25, 2-(difluoromethoxy)-7-methyl-5-(3-(trifluoromethyl)phenyl)quinoxaline] | 14.5 µM |  | 15.2 µM | 11.7 µM |  |  | > 100 µM | > 100 µM
12 | COc1ccc(-c2cc(C(F)(F)F)cc3nc(OC(F)F)cnc23)cc1F [Example 12] | 3.2 µM |  | 1.1 µM | 1.3 µM |  |  | 14.3 µM | > 99.5 µM
13 | COc1ccc(-c2cc(C(F)(F)F)cc3nc(OC(F)F)cnc23)cc1C(F)(F)F [Example 9, 2-(difluoromethoxy)-5-(4-methoxy-3-(trifluoromethyl)phenyl)-7-(trifluoromethyl)quinoxaline] | 3.3 µM |  | 1.5 µM | 1.7 µM |  |  | 76.2 µM | 78.7 µM
14 | COc1ccc(-c2cc(C)cc3nc(OC(F)F)cnc23)cc1C(F)(F)F [Example 16, 2-(difluoromethoxy)-5-(4-methoxy-3-(trifluoromethyl)phenyl)-7-methylquinoxaline] | 7 µM |  | 9.1 µM | 9.4 µM |  |  | > 99.5 µM | > 99.5 µM
15 | COc1ccc(-c2cc(C(F)(F)F)cc3ncc(OC(F)F)nc23)cc1 [Example 14, 2-(difluoromethoxy)-8-(4-methoxyphenyl)-6-(trifluoromethyl)quinoxaline] | 2.8 µM |  | 2.6 µM | 2.9 µM |  |  | 57.7 µM | 49.9 µM
